Measurements reported in patent publication US8258098B2, “Antitumoral treatments” (Pharma Mar, S.A., priority 2006, dated 2012).
Like-named read-outs stand apart in the source and are kept apart here.

Tests used:
HT29 cells = test: MTS cytotoxicity assay, 72 hours, single agents and combinations with Aplidine; format: cell-based; conditions: read-out: IC50 (Molar)
Experimental: (§1) Day before plating cells all cultures were fed with fresh, complete growth media. On the harvest (plating) day cells were counted by Trypan Blue exclusion staining method (basic cell culture). Cells were harvested and seeded in 96 well microtiter plates at 10,000 cells per well in 190 μL of media and incubated for 24 hours to allow the cells to attach before drug addition. Cells were treated with the drugs and the cytotoxic effect was measured by the MTS Assay (Tetrazolium), which is a colorimetric method for determining the number of viable cells. After the 72 hours of incubation with drug, 25 μL of MTS+PMS solution was added to each microtiter well and incubated for 4 hours at 37° C. Plates were then removed from incubator and placed on plate shaker for 5 minutes (covered with aluminium foil for protection from light). Optical densities were read at 490 nm on spectrophotometer plate reader.
(§2) The microtiter plates were incubated for 72 hrs, at 5% CO2 and 37° C. The cytotoxic effect was measured by MTS Assay. Optical densities read at 490 nm. Normalized data was plotted and interpreted as described. Data was analysed as: • 1. Prism (Graphpad) software program was used to normalized the data to control values (100%=cell growth in the absence of agent (drug); 0%=blank control). • 2. Data normalized were plotted as scatter plots.
(§3) Conversely, antagonism was concluded when inhibition was lower than both maxima. […] Statistical significance was assessed by performing a student's t-test on the inhibition at each dose ratio versus the inhibition at the maximum for each drug.
(§4) As a visual aid, response values were plotted on a scatter plot with dose ratios given on the x-axis and % response values on the y-axis. […] In cases where response values at the two endpoints were approximately equivalent, points lying above or below this predicted line of additivity could be interpreted as representing antagonistic or synergistic drug interaction, respectively.

SKBR3 cells = test: as above; format: cell-based; conditions: read-out: IC50 (Molar)
Experimental: as §1, §2, §3, §4

MOLT3 cells = test: as above; format: cell-based; conditions: read-out: IC50 (Molar)
Experimental: as §1, §2, §3, §4

MX1 cells = test: as above; format: cell-based; conditions: MX1, 72 hours drug exposure, read-out: IC50 (Molar)
Experimental: as §1, §2, §3, §4

HL60 cells = test: as above; format: cell-based; conditions: read-out: IC50 (Molar)
Experimental: as §1, §2, §3, §4

A549 cells = test: as above; format: cell-based; conditions: A549, 72 hours drug exposure, read-out: IC50 (Molar)
Experimental: as §1, §2, §3, §4

PC3 cells = test: as above; format: cell-based; conditions: read-out: IC50 (Molar)
Experimental: as §1, §2, §3, §4

U266B1 cell line = test: cells; format: cell-based; conditions: 72 h, read-out: IC50 (Molar)
Experimental: (§5) These cell lines were cultured in RPMI1640 medium with 10% FBS and 1% L-Glutamine. Each cell line was plated in a 96 well plates at 20,000 cell per well.
(§6) Each serial dilution was paired with 4 different concentrations of Bortezomib or Melphalan.
(§7) The plates were incubated for 3 days at 37° C. and 5% CO2. The plates were read using the Promega MTS assay system with MTS being metabolized by living cells turning into formazan which is […] at 490 nm wavelength. This is an indirect measure of cell viability. These were analyzed using the Softmax Pro program which determines cell viability based percent of control wells. This IC50 data was then transferred into the CalcuSyn program for combination index analysis. CalcuSyn compares IC50 the values of the drugs alone with that of the drugs in combination using an algorithm to determine a combination index.

RPMI-8226 cell line = test: cells; format: cell-based; conditions: Homo sapiens, RPMI-8226, 72 h, read-out: IC50 (Molar)
Experimental: as §5, §6, §7

[1] = test system: RPMI 8226 human myeloma cells; test: Antitumor efficacy against subcutaneous-implanted myeloma xenograft; format: in vivo, male, SCID mice; conditions: RPMI 8226 xenograft, median tumor weight; Aplidine 60 μg/kg/dose IP q1d × 9 day 18, 38; Bortezomib 0.35 mg/kg/dose IV
Experimental: (§8) The animals were housed in microisolator cages, up to five per cage in a 12-hour light/dark cycle. Six-weeks-old male, SCID mice were acclimated in the laboratories for one week prior to the experiment.
Each mouse received 2×10^7 cells resuspended in 0.2 mL of Matrigel®. […] Cells were harvested after four passages in culture. The cells were removed from the flasks, placed in 50-mL centrifuge tubes and centrifuged at 1,000 rpm for 10 minutes in a refrigerated centrifuge. The cell pellets were resuspended in fresh complete medium. The cell count and viability were determined with a Beckman Coulter VI CELL XR cell counter and viability analyzer. The cell suspension was recentrifuged, and the cell pellet was resuspended in Matrigel® at a cell density of 1.0×10^8 cells/mL and placed on wet ice.
The day of tumor cell inoculation was designated as Day 0. […] Those animals selected with tumors in the proper size range were assigned to four treatment groups so that the median tumor weights on the first day of treatment were as close to each other as possible. […]
Animals were observed daily and clinical signed were noted. The s.c. tumors were measured and the animals were weighed twice weekly starting with the first day of treatment, Day 18 after tumor cell inoculation.

U937 cells = test: MTS assay Example 2, single agents and combinations; format: cell-based; conditions: Homo sapiens, U-937, read-out: IC50 (Molar)
Experimental: (§9) The day before plating cells all cultures were fed with fresh, complete growth media. On the harvest (plating) day cells were counted by Trypan Blue exclusion staining method.
(§10) Cells were harvested and seeded in 96 well microtiter plates at 15,000 cells per well in 190 μl of media and incubated for 24 hours to allow the cells to attach before drug addition.
(§11) The cytotoxic effect was measured by the MTS Assay (Tetrazolium), which is a colorimetric method for determining the number of viable cells.
(§12) After 72 hours of incubation with tested agents 25 μl of MTS+PMS solution was added to each microtiter well and incubated for 4 hours at 37° C. Plates were then removed from incubator and placed on plate shaker for 5 minutes (covered with aluminum foil for protection from light). Optical densities were read at 490 nm on spectrophotometer plate reader. Data was analyzed as: • 1. Prism (Graphpad) software program was used to normalized the data to control values (100%=cell growth in the absence of agent (drug); 0%=blank control). • 2. Data normalized were plotted as scatter plots.
as §3
as §4, with “interaction” for “interaction,”

MOLT-3 cells = test: as above; format: cell-based; conditions: Homo sapiens; MOLT-3, MTS; read-out: IC50 (Molar)
Experimental: as §9, §10, §11, §12, §3
as §4, with “interaction” for “interaction,”

HL-60 cells = test: as above; format: cell-based; conditions: Homo sapiens; HL-60, MTS; read-out: IC50 (Molar)
Experimental: as §9, §10, §11, §12, §3
as §4, with “interaction” for “interaction,”

MC116 cells = test: as above; format: cell-based; conditions: Homo sapiens, read-out: IC50 (Molar)
Experimental: as §9, §10, §11, §12, §3
as §4, with “interaction” for “interaction,”

U266B-1 cells = test: as above; format: cell-based; conditions: U266B-1, MTS; read-out: IC50 (Molar)
Experimental: as §9, §10, §11, §12, §3
as §4, with “interaction” for “interaction,”

RAMOS cells = test: as above; format: cell-based; conditions: Homo sapiens, read-out: IC50 (Molar)
Experimental: as §9, §10, §11, §12, §3
as §4, with “interaction” for “interaction,”

K562 cells = test: as above; format: cell-based; conditions: Homo sapiens, read-out: IC50 (Molar)
Experimental: as §9, §10, §11, §12, §3
as §4, with “interaction” for “interaction,”

HUNS-1 cells = test: as above; format: cell-based; conditions: HuNS1; HUNS-1, MTS; read-out: IC50 (Molar)
Experimental: as §9, §10, §11, §12, §3
as §4, with “interaction” for “interaction,”

RPMI 8226 cells = test: as above; format: cell-based; conditions: Homo sapiens; RPMI 8226, MTS; read-out: IC50 (Molar)
Experimental: as §9, §10, §11, §12, §3
as §4, with “interaction” for “interaction,”

NCI-H929 cells = test: as above; format: cell-based; conditions: Homo sapiens, read-out: IC50 (Molar)
Experimental: as §9, §10, §11, §12, §3
as §4, with “interaction” for “interaction,”

H9 cells = test: MTS assay Example 2, single agents; format: cell-based; conditions: Homo sapiens, read-out: IC50 (Molar)
Experimental: as §9, §10, §11, §12

HUT78 cells = test: MTS assay Example 2, single agents; format: cell-based; conditions: Homo sapiens, read-out: IC50 (Molar)
Experimental: as §9, §10, §11, §12

RL human lymphoma cells = test: Antitumor efficacy against subcutaneous-implanted lymphoma xenograft; format: in vivo; conditions: median tumor weight, Aplidine 60 μg/kg/dose IP q1d × 9 day 15, 28, Rituximab 20 mg/kg/dose IP q3d × 2 day 15, 22, 29, 36
From the text: The purpose of this study was to evaluate the antitumor efficacy of Aplidine when administered in combination with rituximab against subcutaneous-implanted RL human lymphoma cells in […], SCID mice.
as §8
Each mouse was inoculated s.c. near the right flank with RL human lymphoma cells from an in vitro cell culture using a 23-gauge needle. Each mouse received 1.0×10^7 cells resuspended in 0.2 mL of Matrigel®. […] The cell count was determined with a Coulter Model Z1 cell counter and viability was measured following propidium iodide staining and analyzed using a Beckman Coulter EPICS XL flow cytometer. […]
Animals were observed daily and clinical signed were noted. The s.c. tumors were measured and the animals were weighed twice weekly starting with the first day of treatment, Day 15. Tumor volume was determined by caliper measurements (mm) and using the formula for an ellipsoid sphere as described in Example 7.

Compound | IC50 (HT29 cells; HT29, 72 hours drug exposure) [µM] | IC50 (SKBR3 cells; SKBR3, 72 hours drug exposure) [µM] | IC50 (MOLT3 cells; MOLT3, 72 hours drug exposure) [µM] | IC50 (MX1 cells) [µM] | IC50 (HL60 cells; HL60, 72 hours drug exposure) [µM] | IC50 (A549 cells) [µM] | IC50 (PC3 cells; PC3, 72 hours drug exposure) [µM] | further results
Nc1ccn([C@@H]2O[C@H](CO)[C@@H](O)[C@@H]2O)c(=O)n1 [AraC, cytosine arabinoside] | > 100 | > 100 | 0.22 | > 100 | 10 | > 100 | > 100 | –
CC(C)C[C@H](NC(=O)[C@H](Cc1ccccc1)NC(=O)c1cnccn1)B(O)O [Bortezomib] | – | – | – | – | – | – | – | IC50 (U266B1 cell line; U2661, MTS): 16.6 µM; IC50 (RPMI-8226 cell line; RPMI8226, MTS): 0.00229 µM; % T/C on day 27 [1]: 70%; % T/C on day 48 [1]: 67%
N[C@@H](Cc1ccc(N(CCCl)CCCl)cc1)C(=O)O [Melphalan] | – | – | – | – | – | – | – | IC50 (U266B1 cell line): 0.00316 µM; IC50 (RPMI-8226 cell line): 16.1 µM
CCc1c2c(nc3ccc(O)cc13)-c1cc3c(c(=O)n1C2)COC(=O)[C@]3(O)CC [SN38, 7-ethyl-10-hydroxycamptothecin] | 0.12 | < 1e-05 | 1 | 0.15 | < 1 | 1300 | 46 | –
COc1cc([C@@H]2c3cc4c(cc3[C@@H](O[C@@H]3O[C@@H]5CO[C@@H](C)O[C@H]5[C@H](O)[C@H]3O)[C@H]3COC(=O)[C@H]23)OCO4)cc(OC)c1O [VP16, etoposide] | – | – | – | – | – | – | – | IC50 (U937 cells): 0.44 µM; IC50 (MOLT-3 cells): 0.024 µM; IC50 (HL-60 cells): 2 µM; IC50 (MC116 cells): 0.23 µM; IC50 (U266B-1 cells): 5.9 µM; IC50 (RAMOS cells): 0.11 µM; IC50 (K562 cells): 7.6 µM; IC50 (HUNS-1 cells): 3.1 µM; IC50 (RPMI 8226 cells): 0.37 µM; IC50 (NCI-H929 cells): 2.4 µM; IC50 (H9 cells): 0.73 µM; IC50 (HUT78 cells): 1.4 µM
N.N.[Cl][Pt][Cl] [cisplatin] | 720 | 7 | 0.57 | 170 | 12 | 6 | 87 | –
COc1cccc2c1C(=O)c1c(O)c3c(c(O)c1C2=O)C[C@@](O)(C(=O)CO)C[C@@H]3O[C@H]1C[C@H](N)[C@H](O)[C@H](C)O1 [doxorubicin] | – | – | – | – | – | – | – | IC50 (HT29 cells; Homo sapiens, HT-29, HT29, 72 hours drug exposure): > 100 µM; IC50 (SKBR3 cells; Homo sapiens, SK-BR-3, SKBR3, 72 hours drug exposure): 0.29 µM; IC50 (MOLT3 cells; Homo sapiens, MOLT-3, MOLT3, 72 hours drug exposure): 0.0069 µM; IC50 (MX1 cells; Homo sapiens): > 100 µM; IC50 (HL60 cells; Homo sapiens, HL-60, HL60, 72 hours drug exposure): > 100 µM; IC50 (A549 cells; Homo sapiens): 1.3 µM; IC50 (PC3 cells; Homo sapiens, PC-3, PC3, 72 hours drug exposure): 11 µM
Rituximab: Rituxan® (Rituximab), standard agent | – | – | – | – | – | – | – | % T/C on day 24 (RL human lymphoma cells): 95%; % T/C on day 38 (RL human lymphoma cells): 102%
arsenic trioxide | 80 | 100 | 3.7 | 97 | 20 | 420 | 1200 | –
